Measured values reported in PubChem BioAssay (NCI).
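Values below derive from 48-hour exposures of cells grown in 96-well plates, with endpoints linearly interpolated between the two concentrations bracketing the appropriate inhibition level. GI50: concentration for 50% inhibition of growth. The concentration for full growth arrest is given as TGI.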

Legend:
Assay in all cases: NCI-60 cell line screen, 48 h
[1] = tested on: 786-0 renal
[2] = tested on: CAKI-1 renal
[3] = tested on: SK-OV-3 ovarian
[4] = tested on: MOLT-4 leukemia
[5] = tested on: CCRF-CEM leukemia
[6] = tested on: HCC-2998 colon
[7] = tested on: A498 renal
[8] = tested on: HOP-92 NSCLC

SMILES | GI50 [1] [µM] | TGI [1] [µM] | GI50 [2] [µM] | TGI [2] [µM] | GI50 [3] [µM] | TGI [3] [µM] | GI50 [4] [µM] | TGI [4] [µM] | GI50 [5] [µM] | TGI [5] [µM] | GI50 [6] [µM] | TGI [6] [µM] | GI50 [7] [µM] | TGI [7] [µM] | GI50 [8] [µM] | TGI [8] [µM]
COc1ccc(C2=C(c3ccc(OC)cc3)C(=O)OC2)cc1 | 2.11 | 10.9 | 0.489 | 14.8 | 2.2 | > 100 | 1.29 | 23.8 | 3.29 | 18.5 | 0.264 | 14.5 | 0.528 | 3.66 | 7.45 | 51.9
COC(=O)CNC(=O)C(=O)c1c(O)c(O)c(C(C)C)c2cc(C)c(-c3c(C)cc4c(C(C)C)c(O)c(O)c(C(=O)C(=O)NCC(=O)OC)c4c3O)c(O)c12 | 2.35 | 8.77 | 3.74 | 14.3 | 1.79 | 6.89 | 1.36 | 16 | 2.14 | > 50 | 1.92 | 7.1 | 2.6 | 12.2 | 1.38 | 3.81
N[C@H]1CCC[C@@H](O)C1O (stereo not given in full) |  | > 100 |  | > 100 |  | > 100 | > 100 | > 100 |  | > 100 |  | > 100 |  | > 100 |  | 
COC(=O)NC1(NC(=O)OC)NC(=O)c2ccccc2N1 |  | > 100 |  | > 100 |  | > 100 |  | > 100 |  | > 100 |  | > 100 |  | > 100 |  | 
CN[C@@H](C)C(=O)N[C@H](C(=O)N1CCC[C@H]1c1nc(C(=O)c2ccc(F)cc2)cs1)C1CCCCC1 | 17.1 | 34 | 34.9 | > 100 |  |  | 20 | 57 | 20.5 | > 84.6 | 16 | 31.2 | 6.59 | 25.4 | 2.8 | 8.98
COc1ccc(C2=Nn3c(nnc3-c3ccc(F)c(Cl)c3)SC2)cc1 | > 100 | > 100 | > 100 | > 100 | > 100 | > 100 | > 100 | > 100 | 57.8 | > 100 | > 100 | > 100 | > 100 | > 100 | 18.1 | 56.7
CCCC(=O)Oc1ccc(/C(=C(\C)c2ccc(Cl)cc2)c2ccc(OCCN(CC)CC)cc2)cc1 | 1.74 | 3.5 | 3.99 | 16.3 | 4.85 | 17.5 | 3.09 | 10.5 | 4.18 | 15.5 | 2.67 | 7.06 |  |  | 7.76 | 23.4
CNc1c2ccccc2nc2occ(Cl)c12 | 34.6 | > 100 | 12 | 33.2 | 36.8 | > 100 | 13.3 | 64.6 | 27.1 | 84.5 | 36 | > 100 | 11.9 | 41.7 | 26.9 | > 100
Nc1nc(N)nc(CCCCc2nc(N)nc(N)n2)n1 |  | > 100 |  | > 100 |  | > 100 |  | > 100 |  | > 100 |  |  |  | > 100 |  | > 100
C=C1C(=O)OC2CC1C(OC(=O)/C=C/c1ccccc1)C/C(C)=C/CC/C(C)=C/CCC2(C)O (stereo not given) |  | 2.31 |  | 2.78 |  | 5.46 |  | > 39.8 |  |  |  | 3.12 |  | 3.68 |  | 4.03
OCc1c(-c2cccs2)oc(-c2cccs2)c1CO | > 100 | > 100 | 38.2 | 94.9 |  |  | 27.9 | > 100 | 48.7 | > 100 | 21.1 | 45.6 | 34.3 | 91.7 | 42.8 | > 100
Nc1n[n+]([O-])c2ccc(Cl)cc2[n+]1[O-] |  | > 100 |  | 91.2 |  | 52.9 |  | > 100 |  | > 100 |  | 55.5 |  | 96.6 |  | 
O=C1c2ccccc2C(=O)N1c1ccc(Cc2ccc(N3C(=O)c4ccccc4C3=O)cc2)cc1 |  | > 100 |  | > 100 |  | > 100 |  | > 100 |  |  |  | > 100 |  | > 100 |  | > 100
O=C1CCCC2=C1CC1=C(CCCC1=O)N2c1ccc(Cl)cc1 |  | > 100 |  | > 100 |  | > 100 |  | > 100 |  | > 100 |  | > 100 |  | > 100 |  | 
O=C1OC(C(O)CO)C(C(O)CO)OC1=O (stereo not given) |  | > 10 |  | > 10 |  |  |  | > 10 |  | > 10 |  | > 10 |  | > 10 |  | 
CC(NCCN(C)C)C1CCC2C3CCc4cc(O)ccc4C3CCC12C (stereo not given) |  | 4.1 |  | 4.32 |  | 15.9 |  | 5.19 |  | 3.47 |  |  |  | 8.38 |  | 13.1
O=C1/C(=C/c2ccc(F)cc2)COc2ccc(O)c(O)c21 | 1.84 | 5.63 | 1.65 | 5.61 | 4.45 | > 100 | 1.37 | > 100 | 0.313 | 1.46 | 1.8 | 3.57 | 12.5 | 28.3 |  | 
N#CC1=C(N)NC(=O)C(C#N)C12Nc1ccccc1S2 (stereo not given) | > 100 | > 100 | > 100 | > 100 | 66.6 | > 100 | 95.8 | > 100 | > 100 | > 100 |  |  |  |  | 74 | > 100
O=NNc1ccc(-c2ccccc2)cn1 |  | > 39.2 |  | 43.8 |  | > 78.8 |  |  |  | > 100 |  | > 76.4 |  | 32.7 |  | 8.45
O=CNC(Cc1cnc[nH]1)C(=O)O (stereo not given) |  | > 100 |  | > 100 |  | > 100 |  |  |  | > 100 |  |  |  | > 100 |  | > 100
CC(C)(C)OC(=O)N(CCCCN(CCCn1c2c(c3ccccc3c1=O)C(=O)c1ccccc1-2)C(=O)OC(C)(C)C)CCCn1c2c(c3ccccc3c1=O)C(=O)c1ccccc1-2 | 26.8 | > 100 | 19.9 | > 100 | > 100 | > 100 | > 100 | > 100 |  |  | 10.9 | 41 |  |  | 97 | > 100
